Like-named read-outs stand apart in the source and are kept apart here. Where no end group is shown, it is not given here.
Tests used:
[1] = target: peptide 33 (bacteriophage P4 (designed variant)) (UniProt P05460); test: EMSA; settings: EMSA/competition: 10 mM Tris-HCl pH 8.0, 250 mM NaCl, 37 C, 10 min, 10 nM labeled nucleic acid, fluorescence: 10 mM Tris-Cl pH 8, 500 mM NaCl, 20-37 C
[2] = system: bacterial cells; settings: cited from earlier work
[3] = system: E. coli; settings: also cause cell death; ref [29]; cited from earlier work
Description: (§1) AMPs are prevalent in all forms of life. They are part of the natural defense mechanism of the organism. […] Another such small peptide that has the potential to be useful against drug-resistant bac ...

[4] = system: bacteria; settings: acts by blocking the synthesis of macromolecules; ref [28]; cited from earlier work
Description: as §1

[5] = target: peptide 33 (bacteriophage P4 (designed variant)) (UniProt P05460); test: competition; settings: EMSA/competition: 10 mM Tris-HCl pH 8.0, 250 mM NaCl, 37 C, 10 min, 10 nM labeled nucleic acid, fluorescence: 10 mM Tris-Cl pH 8, 500 mM NaCl, 20-37 C, scale: fold excess over 292 bp dsDNA for 50% release
[6] = system: dsDNA; settings: ref [30], [31], [32]; cited from earlier work
Description: as §1

With 160 bp dsDNA as the molecule, how does the Kd [1] read?
Its Kd is 4000 nM.

Which Kd [1] does the source give for 283 nt gfc RNA here?
Its Kd is 1000 nM.

For 292 bp dsDNA, which Kd [1] is on record?
The Kd was 2750 nM.

With 499 bp dsDNA as the molecule, how does the Kd [1] read?
Its Kd is 4700 nM.

For NCC[C@H](O)C(=O)N[C@@H]1C[C@H](N)[C@@H](O[C@H]2O[C@H](CN)[C@@H](O)[C@H](O)[C@H]2O)[C@H](O)[C@H]1O[C@H]1O[C@H](CO)[C@@H](O)[C@H](N)[C@H]1O [amikacin], which elongated cell phenotype ([2]; ref [21]) is on record?
The elongated cell phenotype was “elongated cells phenotypes”.

Which elongated cell phenotype ([2]; ref [21], [22]) does the source give for O=C(N[C@H](CO)[C@H](O)c1ccc([N+](=O)[O-])cc1)C(Cl)Cl [chloramphenicol] here?
The elongated cell phenotype was “elongated cells phenotypes”.

Which elongated cell phenotype ([2]; ref [19]) does the source give for O=C(O)c1cn(C2CC2)c2cc(N3CCNCC3)c(F)cc2c1=O [ciprofloxacin] here?
Its elongated cell phenotype is “elongated cells phenotypes”.

Which elongated cell phenotype ([2]; ref [20]) does the source give for NC[C@H]1O[C@H](O[C@H]2[C@H](O)[C@@H](O[C@H]3O[C@H](CO)[C@@H](O)[C@H](N)[C@H]3O)[C@H](N)C[C@@H]2N)[C@H](O)[C@@H](O)[C@@H]1O [kanamycin] here?
Its elongated cell phenotype is “elongated cells phenotypes”.

For “ATCTTCTCTCATCCGCCAAAACAGCC [26-mer ssDNA (RS1816)]”, which Kd [1] is on record?
The Kd was 2000 nM.

For “HNP-1: human neutrophils-derived peptide defensin”, which “inhibition of DNA, RNA, and protein synthesis” value (“inhibition of DNA, RNA” for short) [3] is on record?
The value was “inhibit the synthesis of DNA, RNA, and proteins”.

With “HNP-2: human neutrophils-derived peptide defensin (CYCRIPACIAGERRYGTCIYQGRLWAFCC; ends and bridges not checked; cysteine pairing not given here; UniProt P59665 66-94, looked up)” as the molecule, how does the “inhibition of DNA, RNA” value [3] read?
The value was “inhibit the synthesis of DNA, RNA, and proteins”.

Which “inhibition of DNA, RNA” value [3] does the source give for “HNP-3: human neutrophils-derived peptide defensin” here?
The value was “inhibit the synthesis of DNA, RNA, and proteins”.

Which antibacterial activity [4] does the source give for Pleurocidin here?
Its antibacterial activity is “broad-spectrum antibacterial activity”.

What does the source list for “TGATCCTCCTCCTCCTGATCCTCCTCCTCCTGATCCTCCTCCTCCTGAGCGTTTCATCATTTCGAAGAAATCGTC [75-mer ssDNA (RS2230)]”?
binding signal [5]: 9.5; Kd [1]: 740 nM

For gentamycin, which elongated cell phenotype ([2]; ref [23]) is on record?
The elongated cell phenotype was “elongated cells phenotypes”.

For “indolicidin: 13-mer peptide with tryptophan-rich sequences of the cathelicidin family of host defense peptides (ILPWKWPWWPWRR; ends and bridges not checked; UniProt P33046 131-143, looked up)”, which “binding to dsDNA” value [6] is on record?
The value was “binds to dsDNA”.

For lambda tR1 RNA (284 nt), which binding signal [5] is on record?
Its binding signal is 2.8.

— publication PMC10692717, “Peptides designed from a bacteriophage capsid protein function as synthetic transcription repressors” (The Journal of Biological Chemistry, 2023)
